Where two headings read alike, the source gives them in different places.
How the values were obtained:
[1] = biological target: T1, GLP-1R (Homo sapiens, UniProt P43220); test: PathHunter β-arrestin assay; format: cell-based
Method in brief: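 Cells seeded overnight, then medium replaced with medium containing 0.2% BSA; agonists added as 22-point 2-fold DMSO dilution series in duplicate and incubated 90 min at 37 °C, 5% CO2. After addition of detection solution, plates sat 3 h at room temperature in the dark; luminescence read.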

[2] = biological target: T1, GLP-1R; test: HitHunter cAMP assay (GLP-1R); format: cell-based; conditions: cAMP; for Emax: read-out: (Emax) GLP-1R
Method in brief: (§1)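 Suspension cells expressing each receptor (10,000 per well) in HBSS with 10 mM HEPES, 625 μM IBMX and 0.2% BSA were treated with a 22-point 2-fold agonist series in duplicate for 30 minutes at room temperature. cAMP was detected by antibody immunocompetition with luminescence read after overnight incubation.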

[3] = biological target: T2, GIP-R (Homo sapiens, UniProt P48546); test: HitHunter cAMP assay (GIP-R); format: cell-based; conditions: cAMP; for Emax: read-out: (Emax) GIP-R
T2 sequence (P48546 22-466): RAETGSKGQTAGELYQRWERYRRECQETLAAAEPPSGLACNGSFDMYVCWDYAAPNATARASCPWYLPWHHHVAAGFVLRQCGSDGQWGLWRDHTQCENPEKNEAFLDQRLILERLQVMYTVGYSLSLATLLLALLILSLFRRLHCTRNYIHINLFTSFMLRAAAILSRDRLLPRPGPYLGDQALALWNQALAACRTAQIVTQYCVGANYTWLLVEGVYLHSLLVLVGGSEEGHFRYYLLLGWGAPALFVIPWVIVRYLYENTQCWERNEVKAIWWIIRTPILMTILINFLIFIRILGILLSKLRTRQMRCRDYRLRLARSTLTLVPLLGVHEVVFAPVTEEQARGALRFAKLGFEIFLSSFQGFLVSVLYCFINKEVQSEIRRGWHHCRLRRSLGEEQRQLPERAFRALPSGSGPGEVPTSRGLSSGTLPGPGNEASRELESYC
Method in brief: as §1

[4] = system: mice; test: Glucose tolerance test (GTT); format: in vivo, mouse; conditions: 24 h GTT, s.c., percent of vehicle
Method in brief: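 Compounds diluted in PBS from 1 mM DMSO stocks and given subcutaneously 15 min (5-6 h fast), 4 h (16 h overnight fast), 16 h or 24 h before intraperitoneal glucose (2 g/kg). Tail blood glucose read at 10–120 min post-glucose, at least 6 mice per time-point. Glucose AUC over time determined.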

[5] = PathHunter β-arrestin assay, read-out: β-arrestin activity EC50
[6] = Table 3, read-out: EC50 GLP-1R/nM
[7] = Table 3A, read-out: EC50 GLP-1R/nM
[8] = Table 3, read-out: EC50 GIP-R/nM
[9] = Table 3A, read-out: EC50 GIP-R/nM

T1 sequence (P43220 24-463): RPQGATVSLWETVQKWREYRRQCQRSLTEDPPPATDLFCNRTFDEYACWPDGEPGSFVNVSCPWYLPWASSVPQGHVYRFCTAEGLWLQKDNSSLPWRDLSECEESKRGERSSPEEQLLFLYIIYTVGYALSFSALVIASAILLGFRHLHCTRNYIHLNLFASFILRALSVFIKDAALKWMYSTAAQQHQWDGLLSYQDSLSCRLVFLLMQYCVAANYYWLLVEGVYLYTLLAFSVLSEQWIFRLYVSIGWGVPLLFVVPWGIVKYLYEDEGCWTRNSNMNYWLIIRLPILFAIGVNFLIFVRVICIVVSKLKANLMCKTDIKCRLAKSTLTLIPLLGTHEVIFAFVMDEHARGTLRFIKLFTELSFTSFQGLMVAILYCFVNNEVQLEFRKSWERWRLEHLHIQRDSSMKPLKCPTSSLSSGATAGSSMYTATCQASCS

SMILES	EC50 [1] [nM]	EC50 ([2]; EC50 GLP-1R/nM, Table 3) [nM]	EC50 ([2]; EC50 GLP-1R/nM, Table 3A) [nM]	Emax ([2]; Table 3) [%]	Emax ([2]; Table 3A) [%]	EC50 ([3]; EC50 GIP-R/nM, Table 3) [nM]	EC50 ([3]; EC50 GIP-R/nM, Table 3A) [nM]	Emax ([3]; Table 3) [%]	Emax ([3]; Table 3A) [%]	AUC score ([4]; dose range 2-5 nmol/kg)	EC50 [1, 5] [nM]	EC50 [2, 6] [nM]	EC50 [2, 7] [nM]	EC50 [3, 8] [nM]	EC50 [3, 9] [nM]	AUC score ([4]; dose range 5.1-15 nmol/kg)
CCCCCCCCCCCCCCCC(=O)N[C@@H](CCC(=O)NCCCC[C@H](NC(=O)[C@H](CO)NC(=O)[C@@H]1CCCN1C(=O)[C@@H]1CCCN1C(=O)[C@@H]1CCCN1C(=O)[C@H](C)NC(=O)CNC(=O)[C@H](CO)NC(=O)[C@H](CO)NC(=O)[C@@H]1CCCN1C(=O)CNC(=O)CNC(=O)[C@H](C)NC(=O)[C@H](CC(C)C)NC(=O)[C@H](CC(C)C)NC(=O)[C@H](Cc1c[nH]c2ccccc12)NC(=O)[C@H](CC(N)=O)NC(=O)[C@@H](NC(=O)[C@H](Cc1ccccc1)NC(=O)[C@H](CCC(=O)O)NC(=O)C(C)(C)NC(=O)[C@H](C)NC(=O)[C@H](C)NC(=O)[C@H](CCC(N)=O)NC(=O)[C@H](CCCCN)NC(=O)[C@H](CC(=O)O)NC(=O)[C@H](CC(C)C)NC(=O)[C@H](Cc1ccc(O)cc1)NC(=O)[C@@H](NC(=O)[C@H](CO)NC(=O)[C@H](Cc1ccc(O)cc1)NC(=O)[C@H](CC(=O)O)NC(=O)[C@H](CO)NC(=O)[C@@H](NC(=O)[C@H](Cc1ccccc1)NC(=O)[C@@H](NC(=O)CNC(=O)[C@H](CCC(=O)O)NC(=O)CSCC(=O)NCCN1CCCCCC1=O)[C@@H](C)O)[C@@H](C)O)[C@@H](C)CC)C(C)C)C(N)=O)C(=O)O [Compound 41]	> 1000	0.1 to 1	0.1 to 1	100 to 104	100 to 104	1 to 10	1 to 10	75	75	4 (AUC score 4 = 76-100%)	–	–	–	–	–	–
CCCCCCCCCCCCCCCC(=O)N[C@@H](CCC(=O)NCCCC[C@H](NC(=O)[C@H](CO)NC(=O)[C@@H]1CCCN1C(=O)[C@@H]1CCCN1C(=O)[C@@H]1CCCN1C(=O)[C@H](C)NC(=O)CNC(=O)[C@H](CO)NC(=O)[C@H](CO)NC(=O)[C@@H]1CCCN1C(=O)CNC(=O)CNC(=O)[C@H](C)NC(=O)[C@H](CC(C)C)NC(=O)[C@H](CC(C)C)NC(=O)[C@H](Cc1c[nH]c2ccccc12)NC(=O)[C@H](CC(N)=O)NC(=O)[C@@H](NC(=O)[C@H](Cc1ccccc1)NC(=O)[C@H](CCC(=O)O)NC(=O)C(C)(C)NC(=O)[C@H](C)NC(=O)[C@H](C)NC(=O)[C@H](CCC(N)=O)NC(=O)[C@H](CCCCN)NC(=O)[C@H](CC(=O)O)NC(=O)[C@H](CC(C)C)NC(=O)[C@H](Cc1ccc(O)cc1)NC(=O)[C@@H](NC(=O)[C@H](CO)NC(=O)[C@H](Cc1ccc(O)cc1)NC(=O)[C@H](CC(=O)O)NC(=O)[C@H](CO)NC(=O)[C@@H](NC(=O)[C@H](Cc1ccccc1)NC(=O)[C@@H](NC(=O)CNC(=O)[C@H](CCC(=O)O)NC(=O)CSCC(=O)NCCN1CCCCC1=O)[C@@H](C)O)[C@@H](C)O)[C@@H](C)CC)C(C)C)C(N)=O)C(=O)O [Compound 65]	–	–	–	96	96	–	–	42	42	2 (AUC score 2 = 26-50%)	> 1000	0.1 to 1	0.1 to 1	1 to 10	1 to 10	–
CCCCCCCCCCCCCCCC(=O)N[C@@H](CCC(=O)NCCCC[C@H](NC(=O)[C@H](CO)NC(=O)[C@@H]1CCCN1C(=O)[C@@H]1CCCN1C(=O)[C@@H]1CCCN1C(=O)[C@H](C)NC(=O)CNC(=O)[C@H](CO)NC(=O)[C@H](CO)NC(=O)[C@@H]1CCCN1C(=O)CNC(=O)CNC(=O)[C@H](C)NC(=O)[C@H](CC(C)C)NC(=O)[C@H](CC(C)C)NC(=O)[C@H](Cc1c[nH]c2ccccc12)NC(=O)[C@H](CC(N)=O)NC(=O)[C@@H](NC(=O)[C@H](Cc1ccccc1)NC(=O)[C@H](CCC(=O)O)NC(=O)C(C)(C)NC(=O)[C@H](C)NC(=O)[C@H](C)NC(=O)[C@H](CCC(N)=O)NC(=O)[C@H](CCCCN)NC(=O)[C@H](CC(=O)O)NC(=O)[C@H](CC(C)C)NC(=O)[C@H](Cc1ccc(O)cc1)NC(=O)[C@@H](NC(=O)[C@H](CO)NC(=O)[C@H](Cc1ccc(O)cc1)NC(=O)[C@H](CC(=O)O)NC(=O)[C@H](CO)NC(=O)[C@@H](NC(=O)[C@H](Cc1ccccc1)NC(=O)[C@@H](NC(=O)CNC(=O)[C@H](CCC(=O)O)NC(=O)CSCC(=O)NCCN1CC[C@H](O)C1=O)[C@@H](C)O)[C@@H](C)O)[C@@H](C)CC)C(C)C)C(N)=O)C(=O)O [Compound 66]	–	–	–	113	113	–	–	11	11	2 (AUC score 2 = 26-50%)	> 1000	< 0.1	< 0.1	1 to 10	100 to 1000	–
CCCCCCCCCCCCCCCC(=O)N[C@@H](CCC(=O)NCCCC[C@H](NC(=O)[C@H](CO)NC(=O)[C@@H]1CCCN1C(=O)[C@@H]1CCCN1C(=O)[C@@H]1CCCN1C(=O)[C@H](C)NC(=O)CNC(=O)[C@H](CO)NC(=O)[C@H](CO)NC(=O)[C@@H]1CCCN1C(=O)CNC(=O)CNC(=O)[C@H](C)NC(=O)[C@H](CC(C)C)NC(=O)[C@H](CC(C)C)NC(=O)[C@H](Cc1c[nH]c2ccccc12)NC(=O)[C@H](CC(N)=O)NC(=O)[C@@H](NC(=O)[C@H](Cc1ccccc1)NC(=O)[C@H](CCC(=O)O)NC(=O)C(C)(C)NC(=O)[C@H](C)NC(=O)[C@H](C)NC(=O)[C@H](CCC(N)=O)NC(=O)[C@H](CCCCN)NC(=O)[C@H](CC(=O)O)NC(=O)[C@H](CC(C)C)NC(=O)[C@H](Cc1ccc(O)cc1)NC(=O)[C@@H](NC(=O)[C@H](CO)NC(=O)[C@H](Cc1ccc(O)cc1)NC(=O)[C@H](CC(=O)O)NC(=O)[C@H](CO)NC(=O)[C@@H](NC(=O)[C@H](Cc1ccccc1)NC(=O)[C@@H](NC(=O)CNC(=O)[C@H](CCC(=O)O)NC(=O)CSCC(=O)NCCN1C(=O)C(C)=C(C)C1=O)[C@@H](C)O)[C@@H](C)O)[C@@H](C)CC)C(C)C)C(N)=O)C(=O)O [Compound 77]	> 1000	0.1 to 1	0.1 to 1	90	90	0.1 to 1	0.1 to 1	82	82	–	–	–	–	–	–	2 (AUC score 2 = 26-50%)
CCCCCCCCCCCCCCCC(=O)N[C@@H](CCC(=O)NCCCC[C@H](NC(=O)[C@H](CO)NC(=O)[C@@H]1CCCN1C(=O)[C@@H]1CCCN1C(=O)[C@@H]1CCCN1C(=O)[C@H](C)NC(=O)CNC(=O)[C@H](CO)NC(=O)[C@H](CO)NC(=O)[C@@H]1CCCN1C(=O)CNC(=O)CNC(=O)[C@H](C)NC(=O)[C@H](CC(C)C)NC(=O)[C@H](CC(C)C)NC(=O)[C@H](Cc1c[nH]c2ccccc12)NC(=O)[C@H](CC(N)=O)NC(=O)[C@@H](NC(=O)[C@H](Cc1ccccc1)NC(=O)[C@H](CCC(=O)O)NC(=O)C(C)(C)NC(=O)[C@H](C)NC(=O)[C@H](C)NC(=O)[C@H](CCC(N)=O)NC(=O)[C@H](CCCCN)NC(=O)[C@H](CC(=O)O)NC(=O)[C@H](CC(C)C)NC(=O)[C@H](Cc1ccc(O)cc1)NC(=O)[C@@H](NC(=O)[C@H](CO)NC(=O)[C@H](Cc1ccc(O)cc1)NC(=O)[C@H](CC(=O)O)NC(=O)[C@H](CO)NC(=O)[C@@H](NC(=O)[C@H](Cc1ccccc1)NC(=O)[C@@H](NC(=O)CNC(=O)[C@H](CCC(=O)O)NC(=O)CSCC(=O)NCCN1C(=O)C[C@@H](O)C1=O)[C@@H](C)O)[C@@H](C)O)[C@@H](C)CC)C(C)C)C(N)=O)C(=O)O [Compound 79]	> 1000	0.1 to 1	0.1 to 1	102	102	0.1 to 1	0.1 to 1	77	77	–	–	–	–	–	–	2 (AUC score 2 = 26-50%)

Source: US20260176320A1, “MODULATORS OF G-PROTEIN COUPLED RECEPTORS” (priority 2018, published 2026)
